Experimental findings from article PMC2995738, “In Vitro and In Vivo Anti-Inflammatory Activity of 17-O-Acetylacuminolide through the Inhibition of Cytokines, NF-κB Translocation and IKKβ Activity” (PLoS ONE, 2010) are described below.

This test deals with T1, IKKβ (Homo sapiens, UniProt O14920).
T1 construct: gene IKBKB; Human, recombinant IKKβ
T1 sequence (O14920 1-756): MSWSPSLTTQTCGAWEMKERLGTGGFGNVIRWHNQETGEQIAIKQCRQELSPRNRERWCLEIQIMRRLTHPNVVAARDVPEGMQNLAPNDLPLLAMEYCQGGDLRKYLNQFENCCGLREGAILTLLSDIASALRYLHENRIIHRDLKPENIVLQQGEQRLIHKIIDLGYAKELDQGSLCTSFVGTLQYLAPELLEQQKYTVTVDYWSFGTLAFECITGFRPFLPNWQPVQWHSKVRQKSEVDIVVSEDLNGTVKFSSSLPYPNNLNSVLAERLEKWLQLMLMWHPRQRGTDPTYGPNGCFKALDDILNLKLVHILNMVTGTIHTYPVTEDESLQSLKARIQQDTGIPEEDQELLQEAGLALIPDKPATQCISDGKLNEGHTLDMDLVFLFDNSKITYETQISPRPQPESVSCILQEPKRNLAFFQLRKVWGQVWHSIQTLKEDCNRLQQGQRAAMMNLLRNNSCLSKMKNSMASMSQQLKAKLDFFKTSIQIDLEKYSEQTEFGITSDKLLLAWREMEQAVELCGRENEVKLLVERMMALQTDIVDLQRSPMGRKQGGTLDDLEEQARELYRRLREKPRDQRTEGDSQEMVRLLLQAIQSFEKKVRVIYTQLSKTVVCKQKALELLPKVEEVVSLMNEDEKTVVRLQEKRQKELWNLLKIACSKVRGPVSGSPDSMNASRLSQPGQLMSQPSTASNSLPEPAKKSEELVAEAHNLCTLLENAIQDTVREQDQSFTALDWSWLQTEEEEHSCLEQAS
Nature of the test: K-LISA IKKβ inhibitor screening kit (ELISA of GST-IκBα phosphorylation by recombinant IKKβ). Type of test: biochemical.

As for `CC(=O)OC[C@@]12CC[C@H]3C(C)(C)CCC[C@]3(C)[C@H]1C[C@@H](C1=CC(=O)O[C@H]1O)O2` [AA, (12S)-17-acetoxy-8a,12-epoxy-16(R)-hydroxylabd-13(14)Z-en-15,16-olide], the EC50 was 13.2 µM.
